# In ChEMBL document CHEMBL1275273, “QSAR prediction of D2 receptor antagonistic activity of 6-methoxy benzamides” (Eur J Med Chem, 2010):
# Biological target: D(2) dopamine receptor (Homo sapiens, UniProt P14416)
# Test: Antagonist activity at dopamine D2 receptor
# Format: functional
# Sequence of D(2) dopamine receptor (P14416 whole entry): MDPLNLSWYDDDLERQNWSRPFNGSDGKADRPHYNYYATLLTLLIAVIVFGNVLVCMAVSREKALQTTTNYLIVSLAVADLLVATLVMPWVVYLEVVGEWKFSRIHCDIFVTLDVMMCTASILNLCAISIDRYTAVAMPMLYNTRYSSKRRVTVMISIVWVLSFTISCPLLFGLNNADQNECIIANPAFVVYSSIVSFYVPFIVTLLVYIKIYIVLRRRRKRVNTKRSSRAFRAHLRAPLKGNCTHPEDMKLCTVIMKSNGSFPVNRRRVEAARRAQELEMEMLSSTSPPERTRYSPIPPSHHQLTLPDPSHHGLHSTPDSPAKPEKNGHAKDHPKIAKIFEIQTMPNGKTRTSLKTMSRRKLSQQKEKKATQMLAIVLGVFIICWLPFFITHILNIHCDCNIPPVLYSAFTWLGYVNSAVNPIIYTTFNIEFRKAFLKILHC
row,SMILES,IC50 [nM]
1,CCN1CCC[C@H]1CNC(=O)c1c(OC)ccc(SC)c1OC,1.1
2,CCN1CCC[C@H]1CNC(=O)c1c(OC)ccc(Cl)c1Br,5.62
3,CCc1ccc(OC)c(C(=O)NC[C@@H]2CCCN2CC)c1Cl,4.17
4,CCN1CCC[C@H]1CNC(=O)c1cc(Cl)cc(O)c1OC,38.9
5,CCc1c(Cl)cc(O)c(OC)c1C(=O)NC[C@@H]1CCCN1CC,12
6,CCN1CCC[C@H]1CNC(=O)c1c(Br)c(Br)cc(O)c1OC,25.7
7,CCN1CCC[C@H]1CNC(=O)c1c(OC)c(O)cc(Br)c1[N+](=O)[O-],186
8,CCN1CCC[C@H]1CNC(=O)c1cc(I)cc(O)c1OC,3.02
9,CCc1cc(O)c(OC)c(C(=O)NC[C@@H]2CCCN2CC)c1,2.88
10,CCc1cc(O)c(OC)c(C(=O)NC[C@@H]2CCCN2CC)c1F,1.51
11,CCc1cc(O)c(OC)c(C(=O)NC[C@@H]2CCCN2CC)c1Cl,0.912
12,CCCc1cc(O)c(OC)c(C(=O)NC[C@@H]2CCCN2CC)c1,0.501
13,CCN1CCC[C@H]1CNC(=O)c1cc(OC)cc(O)c1OC,204
14,CCN1CCC[C@H]1CNC(=O)c1c(Br)c(C)cc(O)c1OC,5.5
15,CCc1c(Br)cc(O)c(OC)c1C(=O)NC[C@@H]1CCCN1CC,17
16,CCc1cc(O)c(OC)c(C(=O)NC[C@@H]2CCCN2CC)c1CC,1.78
17,CCc1ccc(OC)c(C(=O)NC[C@@H]2CCCN2CC)c1,39.8
18,CCN1CCC[C@H]1CNC(=O)c1c(Cl)c(Cl)cc(O)c1OC,32.4
19,CCN1CCC[C@H]1CNC(=O)c1c(Cl)c(OC)cc(O)c1OC,70.8
20,CCN1CCC[C@H]1CNC(=O)c1c(Br)ccc(O)c1OC,56.2
21,CCN1CCC[C@H]1CNC(=O)c1c(C)c(Cl)cc(O)c1OC,11
22,CCN1CCC[C@H]1CNC(=O)c1c(OC)ccc(Br)c1Br,7.94
23,CCN1CCC[C@H]1CNC(=O)c1c(C)c(Br)cc(O)c1OC,11
24,CCCc1c(Cl)cc(O)c(OC)c1C(=O)NC[C@@H]1CCCN1CC,110
25,CCN1CCC[C@H]1CNC(=O)c1cc([N+](=O)[O-])cc(O)c1OC,3020
26,CCN1CCC[C@H]1CNC(=O)c1c(OC)cccc1OC,52.5

# The remaining compounds from weak to strong by IC50, led by results:
row,IC50 [nM],SMILES
1,363,CCN1CCC[C@H]1CNC(=O)c1cc(F)cc(O)c1OC
2,316,CCN1CCC[C@H]1CNC(=O)c1cccc(O)c1OC
3,257,CCN1CCC[C@H]1CNC(=O)c1cc(Cl)ccc1OC
4,141,CCCc1c(C)cc(O)c(OC)c1C(=O)NC[C@@H]1CCCN1CC
5,123,CCc1ccc(O)c(OC)c1C(=O)NC[C@@H]1CCCN1CC
6,67.6,CCCc1ccc(OC)c(C(=O)NC[C@@H]2CCCN2CC)c1
7,67.6,CCN1CCC[C@H]1CNC(=O)c1c(Br)c(OC)cc(O)c1OC
8,64.6,CCN1CCC[C@H]1CNC(=O)c1c(Cl)ccc(O)c1OC
9,57.5,CCN1CCC[C@H]1CNC(=O)c1c(Br)c(Cl)cc(O)c1OC
10,45.7,CCN1CCC[C@H]1CNC(=O)c1cc(Br)ccc1OC
11,25.7,CCN1CCC[C@H]1CNC(=O)c1c(Cl)c(C)cc(O)c1OC
12,20,CCN1CCC[C@H]1CNC(=O)c1c(OC)ccc(Cl)c1Cl
13,19.1,CCN1CCC[C@H]1CNC(=O)c1cc(C)cc(O)c1OC
14,17,CCN1CCC[C@H]1CNC(=O)c1c(Cl)c(Br)cc(O)c1OC
15,11,CCc1ccc(OC)c(C(=O)NC[C@@H]2CCCN2CC)c1Br
16,10,CCN1CCC[C@H]1CNC(=O)c1c(OC)ccc(Br)c1O

row,IC50 [nM],SMILES
1,8.71,CCN1CCC[C@H]1CNC(=O)c1c(OC)ccc(O)c1OC
2,8.32,CCN1CCC[C@H]1CNC(=O)c1cc(Br)cc(O)c1OC
3,7.76,CCN1CCC[C@H]1CNC(=O)c1c(C)c(C)cc(O)c1OC
4,7.08,CCN1CCC[C@H]1CNC(=O)c1c(F)c(Br)cc(O)c1OC
5,5.25,CCN1CCC[C@H]1CNC(=O)c1c(OC)ccc(C)c1OC
6,5.01,CCCc1cc(O)c(OC)c(C(=O)NC[C@@H]2CCCN2CC)c1C
7,3.24,CCCc1cc(O)c(OC)c(C(=O)NC[C@@H]2CCCN2CC)c1Cl
8,2.69,CCCCc1ccc(OC)c(C(=O)NC[C@@H]2CCCN2CC)c1OC
9,2.29,CCc1cc(O)c(OC)c(C(=O)NC[C@@H]2CCCN2CC)c1Br
10,1.7,CCN1CCC[C@H]1CNC(=O)c1c(OC)c(O)cc(Cl)c1OC
11,1.41,CCN1CCC[C@H]1CNC(=O)c1c(OC)c(O)cc(Br)c1OC
12,1.29,CCc1cc(O)c(OC)c(C(=O)NC[C@@H]2CCCN2CC)c1OC
13,1.29,CCc1ccc(OC)c(C(=O)NC[C@@H]2CCCN2CC)c1OC
14,0.676,CCN1CCC[C@H]1CNC(=O)c1c(OC)ccc(I)c1OC
15,0.288,CCN1CCC[C@H]1CNC(=O)c1c(OC)c(O)cc(I)c1OC
